# Reference: patent publication US20130123287A1, “CONTROL AGENT FOR SOFT ROT AND CONTROL METHOD FOR THE SAME” (ISHIHARA SANGYO KAISHA, LTD., priority 2010, published 2013)
# Columns and labels:
# [1] = test system: bacteria causing the soft rot (Erwinia carotovora); assay: Inhibition test of growth of bacteria causing soft rot, Reference Test Example 5; assay type: cell-based; conditions: for formed colonies (growth state), grade: PSA medium, 27 degrees Celsius, 2 days
# Experimental: An inhibition test of the growth of bacteria causing the soft rot was done, when a control agent was directly applied to the bacteria causing the soft rot. A given volume of each pesticide of mepanipyrim (Flupika FL [trade name] manufactured by Nippon Soda Co., Ltd.) and streptomycin (Mycin Wettable powder [trade name] manufactured by Hokko Chemical Industry Co., Ltd.) was added together with a suspension of the bacteria causing the soft rot (Erwinia carotovora) to a preliminarily dissolved PSA culture medium (55 degrees Celsius) for subsequent thorough agitation, which was then spread on a plate for culturing at 27 degrees Celsius for 2 days, to examine the growth state. Subsequently, the formed colonies were examined according to the following three grades. • +: at the same level as the level of non-treated lot.
# Plus or minus: apparently less than the colonies of the non-treated lot. • −: almost no colonies observed.
# [2] = test system: bacteria causing the soft rot (Erwinia carotovora); assay: Inhibition test of growth of bacteria causing soft rot, Reference Test Example 4; assay type: cell-based; conditions: for formed colonies (growth state), grade: PSA medium, 27 degrees Celsius, 2 days
# Source text: An inhibition test of the growth of bacteria causing the soft rot was done, when a control agent was directly applied to the bacteria causing the soft rot. A given volume of each pesticide of kresoxim-methyl (STROBY DF [trade name] manufactured by BASF), thiophanate methyl (Topsin M WP [trade name], manufactured by Nippon Soda Co., Ltd), boscalid (Cantus DF [trade name] manufactured by BASF), procymidone (Sumilex WP [trade name] manufactured by Sumitomo Chemical Agro Co., Ltd.) and streptomycin (Mycin Wettable powder [trade name] manufactured by Hokko Chemical Industry Co., Ltd.) was added together with a suspension of the bacteria causing the soft rot (Erwinia carotovora) to a preliminarily dissolved PSA culture medium (55 degrees Celsius) for subsequent thorough agitation, which was then spread on a plate for culturing at 27 degrees Celsius for 2 days, to examine the growth state. Subsequently, the formed colonies were examined according to the following three grades. • +: at the same level as the level of non-treated lot. Plus or minus: apparently less than the colonies of the non-treated lot. • −: almost no colonies observed.
# [3] = test system: soft rot of Chinese cabbage; assay: Test for controlling soft rot of Chinese cabbage, Example 2 / Comparative Example 2 (field, cultivar Harebutai 65); assay type: in vivo; conditions: 1/1000 dilution, 300 L/10a sprayed twice on stems and leaves, 64 days after start
# Source text: Frequency of the disease=[sigma(number of plants with the onset of the disease at each severity level*index of the onset of the disease)/(plants examined*4)]*100
# Disease control value=[1-(frequency of the disease in the treated lot/frequency of the disease in the non-treated lot)]*100
# • 0: No onset • 1: Onset in some of outer leaves (shippable) • 2: Onset in outer leaves and some of head leaves (by removing damaged parts, the resulting cabbage can be shipped as small cabbage but is ranked as grade B). • 3: Most of head leaves are inflicted with the onset of the disease or with severer damages (not shippable) • 4: Whole cabbage plant is inflicted with the onset of the disease and is dead.
# 200 g/l Azoxystrobin (Amistar 20 FLOWABLE [trade name], manufactured by Syngenta Japan K.K.) was adjusted to 500 g ai/10a (0.5 g/m^2, 2500 ml Product/10a) as the amount of the active ingredient and to 150 L/10a as the volume of diluent water.
# 30% w/w triflumizol (TRIFUMIN WP [trade name], manufactured by Nippon Soda Co., Ltd.) was adjusted to 500 g ai/10a (0.5 g/m^2, 1667 g Product/10a) as the amount of the active ingredient and to 150 L/10a as the volume of diluent water.
# 100 g/1 cyazofamid (RANMAN PLOWABLE [trade name], manufactured by Ishihara Sangyo Kaisha, Ltd.) was adjusted to 500 g ai/10a (0.5 g/m^2, 5000 ml Product/10a) as the amount of the active ingredient and to 150 L/10a as the volume of diluent water.
# 50% w/w penthiopyrad (GAIA WG [trade name], manufactured by Mitsui Chemicals Agro, Inc.) was adjusted to 500 g ai/10a (0.5 g/m^2, 1000 g Product/10a) as the amount of the active ingredient and to 150 L/10a as the volume of diluent water.
# 50 g/l flusulfamide (SCABLOCK SC [trade name], manufactured by Mitsui Chemicals Agro, Inc.) was adjusted to 500 g ai/10a (0.5 g/m^2, 10000 ml Product/10a) as the amount of the active ingredient and to 150 L/10a as the volume of diluent water.
# 400 g/1 chlorothalonil (Daconil 1000 [the trade name], manufactured by Sumitomo Chemical, Limited) was adjusted to 1000 g ai/10a (1.0 g/m^2, 2500 ml Product/10a) as the amount of the active ingredient and to 150 L/10a as the volume of diluent water.
# After spreading an agricultural mulch-sheet and opening planting holes (diameter of about 5 cm) for permanent planting through the mulch-sheet, the spray solutions prepared as described above were sprayed onto the planting holes such that the amount of treated active ingredient of chlorothalonil was 1.0 g/m^2 (150 L per 10a) and the amount of each of the remaining spray solutions was 0.5 g/m^2 (150 L per 10a), followed by air-drying; subsequently, seedlings of Chinese cabbage (cultivar Harebutai 65) grown for 4 weeks in cell mold trays (128 holes/nursery box) were planted such that 19 seedlings were planted in each test lot having an area of 2.4 m^2 with two replications.
# Preparation was performed by diluting streptomycin (Mycin 20 wettable powder solution [under the trade name] manufactured by Hokko Chemical Industry Co., Ltd.) with water to 1/1000.
# In a field spread with the agricultural mulch-sheet, Chinese cabbage seedlings (cultivar: Harebutai 65) grown by the same method as in Example 2 were planted by the same method as in Example 2, for spraying the spray solution of streptomycin prepared above in (1) (at each spray volume of 300 L/10a) twice (27 days and 48 days after the planting of the seedlings) on the stems and leaves with a sprayer.
# 64 days after the start of the tests, all the plants in each lot were examined about the severity level of the disease to assess the frequency of the disease and the disease control value. In the same manner as described above, the frequency of the disease and the disease control value were determined. Additionally, soft rot is a disease with damages hardly controlled, so even a chemical at the level C determined by the tests of the effects can practically be used.
smiles,measurement,setting,value
[H]/N=C(/N)N[C@H]1[C@H](O)[C@@H](O)[C@H](O[C@@H]2O[C@@H](C)[C@](O)(C=O)[C@H]2O[C@@H]2O[C@@H](CO)[C@H](O)[C@@H](O)[C@@H]2NC)[C@@H](N/C(N)=N\[H])[C@@H]1O [Streptomycin],"formed colonies (growth state), grade",[1]; 1 ppm active ingredient,"+, ±"
same,"formed colonies (growth state), grade",[1]; 10 ppm active ingredient,"−, −"
same,direct antibacterial activity against Erwinia carotovora (in words),[1]; active ingredient concentration of 10 ppm,exerted a direct antibacterial activity
same,"formed colonies (growth state), grade",[2]; 1 ppm active ingredient,"−, −"
same,"formed colonies (growth state), grade",[2]; 10 ppm active ingredient,"−, −"
same,direct antibacterial activity against Erwinia carotovora (in words),[2]; active ingredient concentration of 1 ppm,exerted a direct antibacterial activity
same,Determination of effect,[3],B (B: Effective (41 to 60 disease control value))
